Common to all, as to assay type: cell-based
For assay [1], the system named is P388 mouse leukemia cells. Put plainly: P388 mouse leukemia cell assay. Conditions: 48 hours. Here is the method: P388 MOUSE LEUKEMIA CELL ASSAY
P388 mouse leukemia cells are grown in Dulbecco MEM medium with 10% horse serum, 4 mM glutamine, and 20 ug/ml gentamycin (Biologos, Inc.). Cells are incubated in 10% CO2 and subcultured 2 times per week.
1. Add composition to each well of a 24-well plate or tube and allow solvent to evaporate to dryness.
2. Add 2 ml (1.2×10^5) cells to each well or tube and mix.
3. Incubate in 10% CO2 at 37° for 48 hours.
4. Read plates with an inverted microscope, scoring activity from 1+ to 4+ as follows: ND (not detectable), >90%; 1+, 75-90%; 2+, 50-74%; 3+, 25-49%; 4+, <25% of control growth. Alternatively, the activity may be designated as IC50 concentration which is the concentration of composition required to inhibit 50% of cell growth on the plate.
Cell counts are performed on each tube and results are reported as percent of control.

In assay [2] the test system is HCT-8 human colon tumor cells. Put plainly: Human tumor cell line assay, HCT-8 (colon). Conditions: 120 hours, read-out: Activity at prescribed doses. Here is the method:
(§1) HUMAN TUMOR CELL LINE ASSAY
(§2) Maintenance of Cell Line HCT-8 human colon tumor cells are grown in RPMl 1640 medium (GIBCO). A-549 human lung carcinoma cells and MD-AMB-231 human breast cancer cells are cultured in Dulbecco medium (Biologos, Inc.). All media are supplemented with 10% fetal bovine serum and contain 50 ug/ml gentamycin. All human tumor cell lines are incubated at 5% CO2 at 37° and subcultured once a week. The seeding levels are 350,000 MCF-7 cells, 60,000 HCT-8 cells and 300,000 A-549 cells per T-25 Flask. Vinblastine is used as a positive control.
(§3) 2. Incubate in a CO2 -incubator for 48 hours.
(§4) 3. Add composition to each well and incubate for an additional 120 hours.
(§5) 4. Discard medium and stain with methylene blue (HCT-8) or crystal violet (A-549 and MD-AMB-231).
(§6) 5. Compare cell density of drug-treated well with that of the control (no drug added) as follows: ND (not detectable), >90%; 1+, 75-90%; 2+, 50-74%; 3+, 25-49%, 4+, >25% of control growth.

For assay [3], the system named is A-549 human lung carcinoma cells. Put plainly: Human tumor cell line assay, A-549 (lung). Conditions: 120 hours, read-out: Activity at prescribed doses. Here is the method:
as §1, §2, §3, §4, §5, §6

In assay [4] the test system is MD-AMB-231 human breast cancer cells. Kind of assay: Human tumor cell line assay, MD-AMB-231 (mammary). The settings on record: 120 hours, read-out: Activity at prescribed doses. Here is the method: as §1, §2, §3, §4, §5, §6

Converted amounts (≈) assume the structure as drawn. Bounds are passed on as bounds.

These results are taken from patent US4895844A, “Indole alkaloid compositions and their methods of use” (Harbor Branch Oceanographic Institution, Inc., priority 1989, dated 1990).

For orientation: IC50 means the concentration needed to halve the response being measured. A higher IC50 goes with a need for much substance. In assay [1], `CN1CC(c2c[nH]c3c(Br)c(Br)cc(O)c23)NCC1c1c[nH]c2cc(Br)ccc12` (stereo not shown) [Biemnidin (1), biemnidin] registered an IC50 of 15 µg/mL (≈ 25.7 µM). Further, the activity at 1 µg/mL in assay [2] (HCT-8, 1 μg/ml) was more than 90%; in assay [3] (A549, A-549, 1 μg/ml), more than 90%; in assay [4] (MDA-MB-231, MD-AMB-231, 1 μg/ml), more than 90%. Besides, the activity at 10 µg/mL is more than 25% in assay [2] (HCT-8, 10 μg/ml); more than 25% in assay [3] (A549, A-549, 10 μg/ml); more than 25% in assay [4] (MDA-MB-231, MD-AMB-231, 10 μg/ml). The activity at 50 µg/mL in assay [2] (HCT-8, 50 μg/ml) is more than 25%; in assay [3] (A549, A-549, 50 μg/ml) it was more than 25%; in assay [4] (MDA-MB-231, MD-AMB-231, 50 μg/ml) it was more than 25%.
